Laboratory results as given in article PMC12254355 (Nature Communications, 2025).
Ends that are not written are not given here.

Experiments:
A. baumannii ATCC 19606 = details: ATCC 19606, 24 h
E. coli ATCC 11775 = details: ATCC 11775, 24 h
E. coli AIC221 = details: AIC221, 24 h
P. aeruginosa PAO1 = details: PAO1, 24 h
P. aeruginosa PA14 = details: PA14, 24 h
[1] = test system: E. faecium ATCC 700221 - VRE; details: ATCC 700221, 24 h
HEK293T cells = details: for CC50 vs HEK293T cells (source data of Figure 4a): 24 h
human red blood cells = details: pH 7.4

Molecule	Minimal Inhibitory Concentration, A. baumannii ATCC 19606 (-) (A. baumannii ATCC 19606)	Minimal Inhibitory Concentration, E. coli ATCC 11775 (-) (E. coli ATCC 11775)	Minimal Inhibitory Concentration, E. coli AIC221 (-) (E. coli AIC221)	Minimal Inhibitory Concentration, P. aeruginosa PAO1 (-) (P. aeruginosa PAO1)	Minimal Inhibitory Concentration, P. aeruginosa PA14 (-) (P. aeruginosa PA14)	Minimal Inhibitory Concentration, E. faecium ATCC 700221 - VRE (+) [1]	CC50 vs HEK293T cells (HEK293T cells)	SIcytotoxicity (HEK293T cells)	CC50 vs HEK293T cells (source data of Figure 4a) (HEK293T cells)	HC50 (human red blood cells)
RKFKWGSFKKILSAGKKLFKKAKKLSKNKNFKKALK [Arachnoserver-6]	64 µmol/L	32 µmol/L	4 µmol/L	4 µmol/L	4 µmol/L	8 µmol/L	5 µM	1.3	5.173 µM	12.1
RKFKWGKLFSTAKKLYKKGKKLSK [UniprotKB-16]	32 µmol/L	8 µmol/L	4 µmol/L	4 µmol/L	4 µmol/L	32 µmol/L	–	5.9	23.72 µM	2082.0
SFKKILSAGKKLFKKAKKL [Arachnoserver-29]	–	16 µmol/L	4 µmol/L	16 µmol/L	16 µmol/L	16 µmol/L	–	4.3	17.1 µM	1.085e+083
KRLKGFAKKLWNSKLARKIRTKGLKYVKNFAK [UniprotKB-7]	–	–	–	–	–	8 µmol/L	–	3.7	14.78 µM	207.9
KRKGYLRLVPEERIWQKGLWWLRRLETDSDKLQK [ISOB-3]	–	–	–	–	–	–	–	–	–	1.085e+083
RRVKRFKKFFKKL [ISOB-6]	–	–	–	32 µmol/L	64 µmol/L	32 µmol/L	–	6.5	–	1.085e+083
RKRRRFISMLKARAKRR [Conoserver-15]	–	–	–	–	–	32 µmol/L	–	0.7	22.52 µM	1.085e+083
KLWNSKLARKIRTKGLKYVKNFAK [UniprotKB-3]	–	–	–	–	–	32 µmol/L	–	1.5	11.61 µM	8.23e+034
LTKWLGKLGVIL [UniprotKB-11]	–	–	–	–	–	–	–	4.4	–	146.7
KRRRASPLWKRRRFLSMLKARAK [Conoserver-2]	–	–	–	64 µmol/L	–	32 µmol/L	–	3.6	–	1570.0
RRVKRFKKFFMKL [UniprotKB-18]	–	–	64 µmol/L	32 µmol/L	–	32 µmol/L	–	3.1	–	1.827e+053
PLWKRRRFLSMLKARAKR [Conoserver-4]	–	–	–	64 µmol/L	–	32 µmol/L	–	2.6	–	707.7
CC(C)C[C@H](NC(=O)[C@H](Cc1ccccc1)NC(=O)CNC(=O)[C@H](CCCNC(=N)N)NC(=O)[C@H](CCCNC(=N)N)NC(=O)[C@H](CCC(N)=O)NC(=O)[C@H](Cc1c[nH]c2ccccc12)NC(=O)[C@H](CC(C)C)NC(=O)[C@@H]1CCCN1C(=O)[C@H](CO)NC(=O)[C@H](C)NC(=O)[C@H](CCCNC(=N)N)NC(=O)CNC(=O)[C@H](CCCNC(=N)N)NC(=O)[C@@H](N)CCCCN)C(=O)N[C@@H](CO)C(=O)N[C@@H](CCCCN)C(=O)N[C@@H](CC(C)C)C(=O)N[C@@H](CCCCN)C(=O)N[C@@H](C)C(=O)N[C@@H](CCCNC(=N)N)C(=O)N[C@@H](C)C(=O)N[C@@H](CCCCN)C(=O)N[C@@H](CCCNC(=N)N)C(=O)N[C@@H](CC(N)=O)C(=O)NCC(=O)N[C@@H](C)C(=O)N[C@@H](Cc1ccccc1)C(=O)N[C@@H](Cc1c[nH]cn1)C(=O)N[C@@H](CC(C)C)C(=O)N1CCC[C@H]1C(=O)N[C@@H](CCCNC(=N)N)C(=O)O [Conoserver-7]	–	–	–	64 µmol/L	–	32 µmol/L	–	2.5	–	1.085e+083
KQKYLIKRSRAKMQNHKLFKLTKR [Conoserver-16]	–	–	–	–	–	64 µmol/L	–	1.5	–	1.085e+083
GKWLISSLVAKHL [UniprotKB-6]	–	–	–	–	–	–	19 µM	0.3	19.46 µM	686.0
KKWRELSRLSRVLQIL [Conoserver-14]	16 µmol/L	16 µmol/L	8 µmol/L	64 µmol/L	–	32 µmol/L	–	7.3	–	1826.0
QPRRVKRFKKFFKKLKNSVKKRAKKF [ISOB-7]	–	–	64 µmol/L	64 µmol/L	–	32 µmol/L	–	4.0	–	569.0
LRAKMLNSKFIKL [Conoserver-5]	–	–	–	–	–	–	–	–	–	1.085e+083
KRRRASPLWKRRRFLSMLKARAK [UniprotKB-10]	–	–	–	–	–	32 µmol/L	–	1.3	43.12 µM	627.2
KKQIRLYLLKYYGKKSSSKSVRKIVISK [Arachnoserver-20]	–	–	–	–	–	32 µmol/L	–	2.8	–	896.7
RQEYPTKRLRAKMLNSKFIKLIKR [Conoserver-12]	–	–	32 µmol/L	–	–	16 µmol/L	–	5.8	–	1.085e+083
FLKKIWRSKLVKRL [UniprotKB-9]	–	–	–	–	16 µmol/L	–	20 µM	1.3	20.18 µM	219457.0
RRASPLWKRRRFLSMLKARAKRTGYK [Conoserver-3]	–	–	64 µmol/L	64 µmol/L	–	32 µmol/L	–	6.0	–	459.2
KWLGKLGVILSHL [UniprotKB-15]	64 µmol/L	32 µmol/L	32 µmol/L	–	–	64 µmol/L	–	1.4	45.97 µM	1.374e+045
RHRIVRTYIAKFGLK [ISOB-2]	–	–	64 µmol/L	–	–	32 µmol/L	–	7.5	–	1.085e+083
RLRAKMRNSKLFKLTKR [Conoserver-10]	–	–	–	–	–	–	–	–	–	1.085e+083
